Calls of active or inactive are those of the source.
Tests used:
[1] = biological target: T1, Peroxisomal acyl-coenzyme A oxidase 3 (Homo sapiens, UniProt O15254)
T1 sequence (O15254 whole entry): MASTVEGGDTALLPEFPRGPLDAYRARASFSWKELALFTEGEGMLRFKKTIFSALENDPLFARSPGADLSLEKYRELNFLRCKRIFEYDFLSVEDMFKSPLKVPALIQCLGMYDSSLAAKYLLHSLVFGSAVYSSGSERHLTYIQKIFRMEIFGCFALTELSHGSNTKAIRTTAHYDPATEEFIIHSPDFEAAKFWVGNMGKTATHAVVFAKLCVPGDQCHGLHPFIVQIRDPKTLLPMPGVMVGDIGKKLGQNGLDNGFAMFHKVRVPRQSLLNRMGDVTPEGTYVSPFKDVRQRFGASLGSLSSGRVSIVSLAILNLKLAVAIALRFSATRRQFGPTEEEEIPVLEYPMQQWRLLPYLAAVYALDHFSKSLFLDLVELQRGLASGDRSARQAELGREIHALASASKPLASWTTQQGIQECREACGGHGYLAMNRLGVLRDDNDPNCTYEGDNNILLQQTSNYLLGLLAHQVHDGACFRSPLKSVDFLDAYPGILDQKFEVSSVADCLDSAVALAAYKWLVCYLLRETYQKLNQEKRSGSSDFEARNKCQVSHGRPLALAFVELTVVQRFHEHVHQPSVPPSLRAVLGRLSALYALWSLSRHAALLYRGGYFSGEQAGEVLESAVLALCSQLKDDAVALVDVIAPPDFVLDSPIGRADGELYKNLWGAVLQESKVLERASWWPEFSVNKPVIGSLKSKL

DNA topoisomerase 2-beta = DNA topoisomerase 2-beta (Homo sapiens, UniProt Q02880)
[2] = biological target: T2, Tyrosine-protein kinase Tec (Homo sapiens, UniProt P42680)
T2 sequence (P42680 whole entry): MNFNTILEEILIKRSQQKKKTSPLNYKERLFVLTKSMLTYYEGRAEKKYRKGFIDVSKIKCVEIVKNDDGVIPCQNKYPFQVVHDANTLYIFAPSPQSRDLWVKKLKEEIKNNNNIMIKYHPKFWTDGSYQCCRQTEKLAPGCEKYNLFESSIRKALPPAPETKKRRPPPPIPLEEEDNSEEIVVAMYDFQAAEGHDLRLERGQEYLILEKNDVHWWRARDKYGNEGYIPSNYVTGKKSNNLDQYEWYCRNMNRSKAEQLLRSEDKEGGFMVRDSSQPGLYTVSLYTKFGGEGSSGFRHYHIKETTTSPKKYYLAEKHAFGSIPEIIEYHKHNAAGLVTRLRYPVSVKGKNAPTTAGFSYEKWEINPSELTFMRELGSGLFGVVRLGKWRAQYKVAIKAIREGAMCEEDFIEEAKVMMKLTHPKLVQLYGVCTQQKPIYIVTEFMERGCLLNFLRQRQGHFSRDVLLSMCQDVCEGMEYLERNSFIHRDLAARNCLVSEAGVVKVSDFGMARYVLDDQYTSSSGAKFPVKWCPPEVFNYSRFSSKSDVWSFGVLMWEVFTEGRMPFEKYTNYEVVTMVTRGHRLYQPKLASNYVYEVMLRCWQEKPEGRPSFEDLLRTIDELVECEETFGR

ADP/ATP translocase 3 = biological target: T3, ADP/ATP translocase 3 (Homo sapiens, UniProt P12236)
T3 sequence (P12236 whole entry): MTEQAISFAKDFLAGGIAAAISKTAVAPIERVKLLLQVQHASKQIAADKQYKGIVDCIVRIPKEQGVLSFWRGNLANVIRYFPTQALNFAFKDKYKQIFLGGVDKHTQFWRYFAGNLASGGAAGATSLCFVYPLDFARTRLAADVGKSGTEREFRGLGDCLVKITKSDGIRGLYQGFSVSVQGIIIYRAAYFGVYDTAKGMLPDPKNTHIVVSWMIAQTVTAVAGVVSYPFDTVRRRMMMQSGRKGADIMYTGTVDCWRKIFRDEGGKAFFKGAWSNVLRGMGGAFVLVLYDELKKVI

[3] = biological target: MAP kinase-activated protein kinase 2 (Homo sapiens, UniProt P49137)
[4] = biological target: Atypical kinase COQ8A, mitochondrial (Homo sapiens, UniProt Q8NI60)
[5] = biological target: T4, Signal recognition particle receptor subunit alpha (Homo sapiens, UniProt P08240)
T4 sequence (P08240 whole entry): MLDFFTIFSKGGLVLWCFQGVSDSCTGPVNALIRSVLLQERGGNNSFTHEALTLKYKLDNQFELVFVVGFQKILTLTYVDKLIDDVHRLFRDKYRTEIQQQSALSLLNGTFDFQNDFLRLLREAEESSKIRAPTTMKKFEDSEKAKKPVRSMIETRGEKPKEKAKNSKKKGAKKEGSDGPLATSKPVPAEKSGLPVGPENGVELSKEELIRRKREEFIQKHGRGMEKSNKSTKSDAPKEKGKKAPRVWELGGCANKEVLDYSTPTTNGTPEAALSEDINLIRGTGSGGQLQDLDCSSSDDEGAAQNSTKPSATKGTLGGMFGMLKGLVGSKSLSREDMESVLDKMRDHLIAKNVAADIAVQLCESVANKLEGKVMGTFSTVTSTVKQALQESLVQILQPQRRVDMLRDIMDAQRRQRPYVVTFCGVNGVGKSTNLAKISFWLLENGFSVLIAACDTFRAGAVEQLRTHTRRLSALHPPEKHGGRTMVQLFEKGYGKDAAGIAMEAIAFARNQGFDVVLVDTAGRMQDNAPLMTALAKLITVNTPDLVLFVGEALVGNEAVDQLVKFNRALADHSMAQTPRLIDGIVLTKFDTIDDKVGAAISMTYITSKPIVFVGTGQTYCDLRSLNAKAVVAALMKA

[6] = biological target: 26S proteasome regulatory subunit 6B (Homo sapiens, UniProt P43686)
Further: in the data inactive means no Kd found up to 30 µM.

Sequence of Atypical kinase COQ8A, mitochondrial (Q8NI60 whole entry): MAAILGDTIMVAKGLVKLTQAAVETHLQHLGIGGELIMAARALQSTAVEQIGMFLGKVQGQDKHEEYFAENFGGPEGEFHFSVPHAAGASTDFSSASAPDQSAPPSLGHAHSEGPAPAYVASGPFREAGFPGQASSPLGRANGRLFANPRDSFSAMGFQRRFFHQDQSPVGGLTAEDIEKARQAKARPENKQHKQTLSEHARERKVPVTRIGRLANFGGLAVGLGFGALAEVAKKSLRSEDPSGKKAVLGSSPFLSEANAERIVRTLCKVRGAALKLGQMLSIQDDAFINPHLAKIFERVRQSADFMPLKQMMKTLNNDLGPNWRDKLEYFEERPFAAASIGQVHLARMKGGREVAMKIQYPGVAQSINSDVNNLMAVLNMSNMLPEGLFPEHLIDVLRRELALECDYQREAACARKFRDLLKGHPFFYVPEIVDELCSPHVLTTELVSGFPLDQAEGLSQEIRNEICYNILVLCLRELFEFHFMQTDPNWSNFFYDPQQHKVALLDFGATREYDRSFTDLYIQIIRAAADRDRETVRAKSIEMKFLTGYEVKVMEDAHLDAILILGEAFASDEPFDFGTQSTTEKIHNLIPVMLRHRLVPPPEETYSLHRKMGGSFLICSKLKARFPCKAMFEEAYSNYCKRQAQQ
Sequence of MAP kinase-activated protein kinase 2 (P49137 whole entry): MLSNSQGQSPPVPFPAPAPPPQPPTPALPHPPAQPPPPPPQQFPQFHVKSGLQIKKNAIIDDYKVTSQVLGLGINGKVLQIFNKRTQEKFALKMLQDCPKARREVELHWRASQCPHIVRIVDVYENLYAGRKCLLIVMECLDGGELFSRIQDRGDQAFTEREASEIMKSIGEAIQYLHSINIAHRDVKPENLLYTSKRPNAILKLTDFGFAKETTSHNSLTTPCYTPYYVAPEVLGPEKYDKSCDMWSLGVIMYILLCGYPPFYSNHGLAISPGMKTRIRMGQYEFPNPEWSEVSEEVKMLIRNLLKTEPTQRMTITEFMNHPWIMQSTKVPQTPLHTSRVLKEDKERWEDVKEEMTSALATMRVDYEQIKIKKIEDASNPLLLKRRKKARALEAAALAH
Sequence of 26S proteasome regulatory subunit 6B (P43686 whole entry): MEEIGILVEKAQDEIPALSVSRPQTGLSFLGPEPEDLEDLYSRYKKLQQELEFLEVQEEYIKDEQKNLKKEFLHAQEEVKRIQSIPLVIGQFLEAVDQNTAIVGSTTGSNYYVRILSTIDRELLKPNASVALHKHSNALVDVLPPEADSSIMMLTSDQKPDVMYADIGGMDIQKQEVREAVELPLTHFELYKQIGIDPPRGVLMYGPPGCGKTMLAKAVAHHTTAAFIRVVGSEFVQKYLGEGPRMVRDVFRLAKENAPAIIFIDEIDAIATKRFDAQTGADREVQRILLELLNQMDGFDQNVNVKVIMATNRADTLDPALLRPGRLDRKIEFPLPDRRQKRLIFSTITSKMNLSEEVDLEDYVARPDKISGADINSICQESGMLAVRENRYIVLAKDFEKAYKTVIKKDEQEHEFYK
Sequence of DNA topoisomerase 2-beta (Q02880 whole entry): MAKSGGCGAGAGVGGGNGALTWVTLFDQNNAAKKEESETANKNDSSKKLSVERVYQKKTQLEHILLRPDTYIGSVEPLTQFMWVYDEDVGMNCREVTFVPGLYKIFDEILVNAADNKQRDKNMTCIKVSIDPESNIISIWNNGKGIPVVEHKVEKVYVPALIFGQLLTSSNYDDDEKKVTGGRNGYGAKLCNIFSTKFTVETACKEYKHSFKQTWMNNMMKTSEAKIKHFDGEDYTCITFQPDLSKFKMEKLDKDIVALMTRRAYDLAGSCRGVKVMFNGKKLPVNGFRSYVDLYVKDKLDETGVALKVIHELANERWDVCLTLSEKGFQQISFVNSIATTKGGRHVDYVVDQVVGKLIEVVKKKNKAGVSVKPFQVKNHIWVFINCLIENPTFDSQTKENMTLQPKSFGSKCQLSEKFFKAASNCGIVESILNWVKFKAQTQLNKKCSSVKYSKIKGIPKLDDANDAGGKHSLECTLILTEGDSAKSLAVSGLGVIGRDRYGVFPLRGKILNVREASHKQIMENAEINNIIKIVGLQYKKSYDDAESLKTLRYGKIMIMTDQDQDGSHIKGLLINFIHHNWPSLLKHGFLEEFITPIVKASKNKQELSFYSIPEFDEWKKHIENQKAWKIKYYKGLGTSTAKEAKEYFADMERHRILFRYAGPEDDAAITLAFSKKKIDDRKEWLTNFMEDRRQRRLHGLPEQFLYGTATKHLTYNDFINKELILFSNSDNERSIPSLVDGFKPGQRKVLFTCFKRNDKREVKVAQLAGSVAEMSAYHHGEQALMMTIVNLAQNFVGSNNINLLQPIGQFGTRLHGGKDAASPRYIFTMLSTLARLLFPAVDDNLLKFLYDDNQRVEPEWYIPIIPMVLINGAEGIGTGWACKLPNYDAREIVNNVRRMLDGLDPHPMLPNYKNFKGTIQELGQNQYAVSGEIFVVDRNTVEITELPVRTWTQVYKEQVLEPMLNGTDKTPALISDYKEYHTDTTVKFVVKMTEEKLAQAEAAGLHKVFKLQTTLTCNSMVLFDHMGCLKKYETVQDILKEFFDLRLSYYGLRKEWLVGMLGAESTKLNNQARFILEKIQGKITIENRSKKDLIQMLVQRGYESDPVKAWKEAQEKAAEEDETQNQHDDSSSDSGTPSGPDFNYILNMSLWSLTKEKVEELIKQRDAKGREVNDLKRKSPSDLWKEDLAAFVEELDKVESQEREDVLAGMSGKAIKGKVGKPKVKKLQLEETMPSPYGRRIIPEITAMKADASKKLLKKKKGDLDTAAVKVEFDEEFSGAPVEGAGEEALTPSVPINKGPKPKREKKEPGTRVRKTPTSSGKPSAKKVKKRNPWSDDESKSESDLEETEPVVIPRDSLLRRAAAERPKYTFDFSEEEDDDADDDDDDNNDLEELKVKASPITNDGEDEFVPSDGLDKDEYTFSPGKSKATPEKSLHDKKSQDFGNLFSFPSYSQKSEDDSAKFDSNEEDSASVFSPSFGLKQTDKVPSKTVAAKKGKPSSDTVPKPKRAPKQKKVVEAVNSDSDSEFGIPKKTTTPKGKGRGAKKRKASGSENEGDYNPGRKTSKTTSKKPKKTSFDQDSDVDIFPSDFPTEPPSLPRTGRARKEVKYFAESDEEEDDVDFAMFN

Kd [1]	Kd (DNA topoisomerase 2-beta)	Kd [2]	Kd (ADP/ATP translocase 3)	Kd [3]	Kd [4]	Kd [5]	Kd [6]	Compound
> 30 µM (inactive)	> 30 µM (inactive)	> 30 µM (inactive)	> 30 µM (inactive)	> 30 µM (inactive)	> 30 µM (inactive)	> 30 µM (inactive)	> 30 µM (inactive)	CCn1c(=O)c(-c2cc[nH]n2)cc2c(C)nc(N)nc21 [VOXTALISIB]
> 30 µM (inactive)	> 30 µM (inactive)	> 30 µM (inactive)	> 30 µM (inactive)	0.354 µM (active)	> 30 µM (inactive)	> 30 µM (inactive)	> 30 µM (inactive)	O=C(Nc1ccc(-c2ccnc(Nc3ccc(N4CCOCC4)cc3)n2)cc1)C1CCCN1 (stereo unspecified) [XL-019]
